Experiments:
[1] = system: SAGPY (Sagittaria pygmaea); test: Flooded paddy, preemergence weed control; type: in vivo, L.; details: rated 3-4 weeks after treatment, 0-9 rating scale
How it was run: (§1)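 In this preemergence paddy assay, weed seeds or organs are sown at up to 0.5 cm in silt loam and covered by 1.5–3 cm of water for the full test period. After treatment the pots are kept in a greenhouse, and herbicidal effect is rated 0-9 visually against a control.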

ZEAMX (Corn, Field) [2] = test: Preemergence herbicidal evaluation; type: in vivo, Zea mays, L.; details: rated 4-5 weeks after treatment
GALAP (Galium aparine) = test: Postemergence herbicidal evaluation; type: in vivo; details: postemergence
How it was run: (§2)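 Seedlings grown about two weeks in flats, sprayed, then kept under standard greenhouse care. Rated visually 4–5 weeks after treatment on a 0–9 scale (stand, vigour, malformation, size, chlorosis, overall appearance) relative to untreated control; repeat tests averaged.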

[3] = system: TRZAWR (Wheat, Winter, cv Riband); test: Preemergence herbicidal evaluation; type: in vivo, Triticum aestivum; details: rated 4-5 weeks after treatment
How it was run: (§3)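 Applied before emergence as an aqueous acetone spray over seeded soil. Read-out: 0–9 visual rating covering plant stand, vigor, size, chlorosis, malformation and overall appearance compared with control, taken 4–5 weeks after spraying.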

[4] = system: AMBEL (Ambrosia artemisifolia); test: Preemergence herbicidal evaluation; type: in vivo, L.; details: rated 4-5 weeks after treatment
How it was run: as §3

[5] = system: CHEAL (Chenopodium album); test: Preemergence herbicidal evaluation; type: in vivo, L.; details: rated 4-5 weeks after treatment
How it was run: as §3

[6] = system: CASOB (Cassia obtusifolia); test: Preemergence herbicidal evaluation; type: in vivo, L.; details: rated 4-5 weeks after treatment
How it was run: as §3

[7] = system: CYPSE (Cyperus serotinus); test: Flooded paddy, preemergence weed control; type: in vivo, Rottb.; details: rated 3-4 weeks after treatment, 0-9 rating scale
How it was run: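 Herbicidal effect was scored visually on a 0–9 scale against an untreated control 3–4 weeks after treatment. Compounds were applied preemergence as 50/50 v/v aqueous/acetone mixtures into flood water (1.5–3 cm deep over silt loam), at roughly 0.0080 to 0.1250 kg/ha active ingredient.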

[8] = system: ECHCG (Echinochloa crus-galli); test: Postemergence herbicidal evaluation; type: in vivo, (L.) Beau; details: postemergence
How it was run: as §2

CYPIR (Cyperus iria) = test: Flooded paddy, preemergence weed control; type: in vivo; details: rated 3-4 weeks after treatment, 0-9 rating scale
How it was run: as §1

[9] = system: IPOHE (Ipomoea hederacea); test: Postemergence herbicidal evaluation; type: in vivo, (L.) Jacq.; details: postemergence
How it was run: as §2

[10] = system: IPOHE (Ipomoea hederacea); test: Preemergence herbicidal evaluation; type: in vivo, (L.) Jacq.; details: rated 4-5 weeks after treatment
[11] = system: AMBEL (Ambrosia artemisifolia); test: Postemergence herbicidal evaluation; type: in vivo, L.; details: postemergence
How it was run: as §2

[12] = system: CHEAL (Chenopodium album); test: Postemergence herbicidal evaluation; type: in vivo, L.; details: postemergence
How it was run: as §2

[13] = system: CASOB (Cassia obtusifolia); test: Postemergence herbicidal evaluation; type: in vivo, L.; details: postemergence
How it was run: as §2

[14] = system: ABUTH (Abutilon theophrasti); test: Postemergence herbicidal evaluation; type: in vivo, Medic.; details: postemergence
How it was run: as §2

ORYSAT (Rice, Tebonnet) = test: Preemergence herbicidal evaluation; type: in vivo, Oryza sativa, (L.) Tebonnet; details: rated 4-5 weeks after treatment
[15] = system: ECHORC (Echinochloa oryzoides); test: Flooded paddy, preemergence weed control; type: in vivo, Echinochloa oryzoides (Ard.) Fritsch.; details: rated 3-4 weeks after treatment, 0-9 rating scale
How it was run: as §1

[16] = system: GLXMAW (Soybean, Williams); test: Preemergence herbicidal evaluation; type: in vivo, Glycine max, (L.) Merr. cv Williams; details: rated 4-5 weeks after treatment
ZEAMX (Corn, Field) [17] = test: Postemergence herbicidal evaluation; type: in vivo, Zea mays, L.; details: postemergence
How it was run: as §2

[18] = system: GLXMAW (Soybean, Williams); test: Postemergence herbicidal evaluation; type: in vivo, Glycine max, (L.) Merr. cv Williams; details: postemergence
How it was run: as §2

SMILES: Cn1c(C(F)(F)F)cc(=O)n(-c2ccc3snc(C4OC(C)(C)C(C)(C)O4)c3c2)c1=O [Compound 56, 1-methyl-3-[3-(4,4,5,5-tetramethyl-1,3-dioxolan-2-yl)-1,2-benzisothiazol-5-yl]-6-(trifluoromethyl)uracil]
- herbicidal rating, SAGPY ([1]; rate 0.0080 kg/ha): 0.0
- herbicidal rating, SAGPY ([1]; rate 0.0320 kg/ha): 0.0
- herbicidal rating, SAGPY ([1]; rate 0.1250 kg/ha): 6.3
- Preemergence herbicidal rating ZEAMX (ZEAMX (Corn, Field) [2]; Rate 0.0620 kg/ha): 7.0
- Preemergence herbicidal rating ZEAMX (ZEAMX (Corn, Field) [2]; Rate 0.1250 kg/ha): 7.0
- Preemergence herbicidal rating ZEAMX (ZEAMX (Corn, Field) [2]; Rate 0.2500 kg/ha): 8.0
- GALAP herbicidal rating (GALAP (Galium aparine); rate 0.0320 kg/ha): 3.0
- GALAP herbicidal rating (GALAP (Galium aparine); rate 0.0620 kg/ha): 3.0
- Preemergence herbicidal rating TRZAWR ([3]; Rate 0.0620 kg/ha): 6.0
- Preemergence herbicidal rating TRZAWR ([3]; Rate 0.1250 kg/ha): 6.0
- Preemergence herbicidal rating TRZAWR ([3]; Rate 0.2500 kg/ha): 7.0
- Preemergence herbicidal rating AMBEL ([4]; Rate 0.0620 kg/ha): 9.0
- Preemergence herbicidal rating AMBEL ([4]; Rate 0.1250 kg/ha): 9.0
- Preemergence herbicidal rating AMBEL ([4]; Rate 0.2500 kg/ha): 9.0
- Preemergence herbicidal rating CHEAL ([5]; Rate 0.0620 kg/ha): 9.0
- Preemergence herbicidal rating CHEAL ([5]; Rate 0.1250 kg/ha): 9.0
- Preemergence herbicidal rating CHEAL ([5]; Rate 0.2500 kg/ha): 9.0
- Preemergence herbicidal rating CASOB ([6]; Rate 0.0620 kg/ha): 4.5
- Preemergence herbicidal rating CASOB ([6]; Rate 0.1250 kg/ha): 5.5
- Preemergence herbicidal rating CASOB ([6]; Rate 0.2500 kg/ha): 9.0
- herbicidal rating, CYPSE ([7]; rate 0.0080 kg/ha): 0.0
- herbicidal rating, CYPSE ([7]; rate 0.0320 kg/ha): 5.5
- herbicidal rating, CYPSE ([7]; rate 0.1250 kg/ha): 9.0
- ECHCG herbicidal rating ([8]; rate 0.0320 kg/ha): 2.0
- ECHCG herbicidal rating ([8]; rate 0.0620 kg/ha): 4.0
- herbicidal rating, CYPIR (CYPIR (Cyperus iria); rate 0.0080 kg/ha): 6.0
- herbicidal rating, CYPIR (CYPIR (Cyperus iria); rate 0.0320 kg/ha): 8.0
- herbicidal rating, CYPIR (CYPIR (Cyperus iria); rate 0.1250 kg/ha): 9.0
- IPOHE herbicidal rating ([9]; rate 0.0320 kg/ha): 9.0
- IPOHE herbicidal rating ([9]; rate 0.0620 kg/ha): 9.0
- Preemergence herbicidal rating IPOHE ([10]; Rate 0.0620 kg/ha): 7.5
- Preemergence herbicidal rating IPOHE ([10]; Rate 0.1250 kg/ha): 7.5
- Preemergence herbicidal rating IPOHE ([10]; Rate 0.2500 kg/ha): 9.0
- AMBEL herbicidal rating ([11]; rate 0.0320 kg/ha): 9.0
- AMBEL herbicidal rating ([11]; rate 0.0620 kg/ha): 9.0
- CHEAL herbicidal rating ([12]; rate 0.0320 kg/ha): 7.0
- CHEAL herbicidal rating ([12]; rate 0.0620 kg/ha): 9.0
- CASOB herbicidal rating ([13]; rate 0.0320 kg/ha): 3.0
- CASOB herbicidal rating ([13]; rate 0.0620 kg/ha): 7.0
- ABUTH herbicidal rating ([14]; rate 0.0320 kg/ha): 9.0
- ABUTH herbicidal rating ([14]; rate 0.0620 kg/ha): 9.0
- Preemergence herbicidal rating ORYSAT (ORYSAT (Rice, Tebonnet); Rate 0.0620 kg/ha): 5.0
- Preemergence herbicidal rating ORYSAT (ORYSAT (Rice, Tebonnet); Rate 0.1250 kg/ha): 6.0
- Preemergence herbicidal rating ORYSAT (ORYSAT (Rice, Tebonnet); Rate 0.2500 kg/ha): 6.0
- herbicidal rating, ECHORC ([15]; rate 0.0080 kg/ha): 9.0
- herbicidal rating, ECHORC ([15]; rate 0.0320 kg/ha): 9.0
- herbicidal rating, ECHORC ([15]; rate 0.1250 kg/ha): 9.0
- Preemergence herbicidal rating GLXMAW ([16]; Rate 0.0620 kg/ha): 7.5
- Preemergence herbicidal rating GLXMAW ([16]; Rate 0.1250 kg/ha): 9.0
- Preemergence herbicidal rating GLXMAW ([16]; Rate 0.2500 kg/ha): 9.0
- ZEAMX herbicidal rating (ZEAMX (Corn, Field) [17]; rate 0.0320 kg/ha): 5.0
- ZEAMX herbicidal rating (ZEAMX (Corn, Field) [17]; rate 0.0620 kg/ha): 5.5
- GLXMAW herbicidal rating ([18]; rate 0.0320 kg/ha): 6.0
- GLXMAW herbicidal rating ([18]; rate 0.0620 kg/ha): 6.5
